We go through two molecules from patent US20130172306A1, “USE OF AN ESTROGEN DERIVATIVE FOR THE MANUFACTURE OF PHARMACEUTICAL COMPOSITIONS USEFUL FOR THE TREATMENT AND/OR PREVENTION OF PSYCHIATRIC DISEASES AND FOR THE TREATMENT AND PREVENTION OF SAID DISEASES” (priority 2010, published 2013).

Experiment [1] deals with ovariectomised female Sprague-Dawley rats. The experiment is described as follows: novelty suppressed feeding (NSF) test. It counts as in vivo, rat. The following applies: through a stomach tube, tested two hours after administration, after 24 h food deprivation, versus vehicle, p<0.05. On the procedure: In the course of our experiment the active agent 17-alpha-estradiol of formula (I) was tested in the animal model “novelty suppressed feeding” (NSF). NFS is a conflict test during which the subject of the test has to resolve a conflict between the stimulus of urgent food intake and the anxiety induced by a novel environment [Bodnoff S R et al.: The effects of chronic antidepressant treatment in an animal model of anxiety. Psychopharmacology (Berl) 95:298-302 (1988)]; Bodnoff S R et al.: A comparison of the effects of diazepam versus several typical and atypical anti-depressant drugs in an animal model of anxiety. Psychopharmacology (Berl) 97:277-279 (1989)]. The NSF model has widespread use in studying efficiency and mechanism of antidepressant drugs and in identification of new antidepressant drugs [Santarelli L et al.: Requirement of hippocampal neurogenesis for the behavioral effects of antidepressants. Science 301:805-809 (2003); Warner-Schmidt J L et al.: VEGF is an essential mediator of the neurogenic and behavioral actions of antidepressants. […]
At the beginning of the NSF test the test animal was placed in a corner of a 75×75×50 cm dark Plexiglas cage. […] The time from the start of the test to the beginning of food intake (first biting) was measured and recorded. Every test was recorded by means of a video camera suspended over the cage. […]

In experiment [2] the test system is LAPC-4 prostate tumour cells. The following applies: cell cultures; Kuiao Y et al. 2007; cited from earlier work.
In experiment [3] the test system is LAPC-4 prostate tumour xenograft. The following applies: xenograft animals; Kuiao Y et al. 2007; cited from earlier work.
In another experiment the test system is SK—N—SH cells. The following applies: Green P S et al. 1997; cited from earlier work.
A further experiment concerns depression. The following applies: preclinical and clinical studies from the literature; cited from earlier work.

Take `C[C@]12CC[C@@H]3c4ccc(O)cc4CC[C@H]3[C@@H]1CC[C@H]2O` [17-alpha-estradiol, estra-1,3,5(10)-triene-3,17α-diol]: the “time from the start of the test to the beginning of food intake (first biting)” value in experiment [1] (A50 group: 50 μg/kg (b47 prints 50 mg/kg)) and in experiment [1] (A150 group: 150 μg/kg (b47 prints 150 mg/kg)) was “shorter time than the control animals” throughout. The “proliferation of LAPC-4 prostate tumour cells” value in experiment [2] was “inhibits proliferation”. Besides, in experiment [3], the “increase of the tumour” value is listed as “inhibits”. The neuroprotective effect entry in the experiment on SK—N—SH cells is “had a neuroprotective effect”.
Turning to `C[C@]12CC[C@@H]3c4ccc(O)cc4CC[C@H]3[C@@H]1CC[C@@H]2O` [17-beta-estradiol], in the experiment on depression, the antidepressant effect result was “no antidepressant effect”.
